Experimental data reported in US9707126B2, “Systems and methods for corneal cross-linking with pulsed light” (Avedro, Inc., priority 2009, dated 2017).
“Also recorded” adds a separate entry of the source.

Legend:
[1] = Absorbance of Riboflavin before and after UVA irradiation (FIG. 3); assay type: physicochemical; conditions: 0.2 mm light path
Description: Referring now to FIG. 3, a graph illustrating absorbance for 0.2 mm light path of an initial sample of Riboflavin versus absorbance for 0.2 mm light path of reduced Riboflavin RfH2 after being irradiated for 3 minutes at an irradiance of 30 mW/cm^2. At a wavelength of 445 nm, the absorbance of the initial sample is about 0.543, while the absorbance of the irradiated sample is about 0.340.

[2] = system: porcine corneal flaps; assay: Fluorescence of papain-digested corneal flaps treated with RFH2 solutions (Example 1)
Description: RFH2 was prepared by irradiation of Riboflavin solutions (with and without EDTA, 1% EDTA, 0.1% Riboflavin) and saturated with argon (to displace oxygen) in a shallow sealed quartz cuvette. Then, in the absence of additional UV light, porcine corneal flaps were immediately placed in those solutions. After 1-2 min this procedure was repeated with a fresh solution containing RFH2 several times. Corneal flaps then were washed with distilled water, digested with papain buffer, and their fluorescence was measured.

[3] = system: porcine cornea; assay: Collagen linked fluorescence in cross-linked corneal flaps at depths of 100 μm and 200 μm (Example 2)
Description: Porcine whole globes (SiouxPreme Packing Co., Sioux City, Iowa; shipped in saline solution packed in ice) were warmed to room temperature (25° C.). The corneas were then de-epithelialized with a dulled scalpel blade and 0.1, 0.25, or 0.5% riboflavin solution in 0.9% saline was applied to the top of each cornea during 20 minutes before cross-linking Corneas were pan-corneally irradiated with a top hat beam (3% root mean square) for a determined amount of time with 365-nm light source (UV LED NCSU033B[T]; Nichia Co., Tokushima, Japan) at the chosen irradiance (3 or 30 mW/cm^2) which was measured with a power sensor (model PD-300-UV; Ophir, Inc., Jerusalem, Israel) at the corneal surface.
Corneal flaps (each 100 μm thick, one after another) were excised from the eyes with aid of Intralase femtosecond laser (Abbott Medical Optics, Santa Ana, Calif.). The average thickness of the corneal flaps was calculated as a difference between the measurements before and after the excision from the eyes with an ultrasonic Pachymeter (DGH Technology, Exton, Pa.). The flaps were washed with distilled water until Riboflavin in the washing waters was not detectable by absorbance measurement at 455 nm (Thermo Scientific Evolution 300/600 UV-Vis Spectrophotometer, Thermo Fisher Scientific, Waltham, Mass.). […]

[4] = system: porcine cornea; assay: Force versus displacement of cross-linked corneal flaps, biaxial materials tester (Example 3)
Description: Upon arrival, porcine eyes have excess muscle tissue that was removed and placed in saline in the incubator (set to 37° C.) for 30 minutes. […] Eyes were removed from solution and physiological IOP was applied. Eyes were then placed under a UVA source and shutter system and irradiated according to the indicated protocol as shown in FIGS. 5A-5C. Riboflavin drops were applied every 1.5 minutes during UVA application. After being irradiated, the corneal thickness was measured with a pachymeter. The sample was then placed under the femto second laser and a ˜200 μm flap was cut. The flap was positioned in a biaxial materials tester (CS-BIO TESTER 5000, CellScale, Waterloo, ON Canada) and stretched until failure. The sample was then rinsed with distilled water and frozen for future papain digestion and fluorescence analysis.

[5] = system: porcine cornea; assay: Cross-linking measured by fluorescence of digested corneal flaps at 450 nm (Example 5); conditions: 0.1% Riboflavin, humid oxygenated environment with pulsed UV light 30 mW/cm^2, 1.5 seconds on/3 seconds off, 9 minutes
Description: Pig eyes from an abattoir (SiouxPreme, Sioux City, Iowa) were rinsed in saline. Eyes were cleaned and the epithelium was removed. Eyes were placed on a stand in the middle of a large beaker filled part way with water with a tube bubbling compressed oxygen into the water. The oxygen was turned on at certain times during the experiment to create a humid oxygenated environment for the eye. Eyes were soaked for 20 minutes with 0.1% Riboflavin, dH2O solution in an incubator set at 37° C. by using a rubber ring to hold the solution on top. Corneas were pan-corneally irradiated with a top hat beam (3% root mean square) for a determined amount of time and irradiance (3 minutes CW at 30 mW/cm^2 with one drop of solution added every 30 seconds, or 30 minutes CW at 3 mW/cm^2 with one drop of solution added every minute, or 9 minutes for pulsed light—1.5 seconds on/3 seconds off—using a shutter system (Lambda SC Smart Shutter, Sutter Instrument, Novato, Calif.) at 30 mW/cm^2 with one drop of solution added every minute) with a 365-nm light source (UV LED NCSU033B[T]; Nichia Co., Tokushima, Japan). The irradiance was measured with a power sensor (model PD-300-UV; Ophir, Inc., Jerusalem, Israel) at the corneal surface. […]
FIG. 7A illustrates a graph of the amount of cross-linking measured by fluorescence of the digested corneal flaps at 450 nm. […]

[6] = system: porcine cornea; assay: Fluorescence of digested 200 μm corneal flaps, continuous wave versus pulsed illumination (Example 4); conditions: for fluorescence at 455 nm: 0.1% Riboflavin, 200 μm flap
Description: In another corroborating experiment porcine whole globes (SiouxPreme Packing Co., Sioux City, Iowa; shipped in saline solution packed in ice) were warmed to room temperature (25 C). The corneas were then de-epithelialized with a dulled scalpel blade and 0.1, Riboflavin solution in 0.9% saline was applied to the top of each cornea during 20 minutes before cross-linking in an incubator. Corneas were pan-corneally irradiated with a top hat beam (3% root mean square) for a determined amount of time with 365-nm light source (UV LED NCSU033B[T]; Nichia Co., Tokushima, Japan) at the chosen irradiance of 30 mW/cm^2 with either continuous wave illumination or pulsed illumination 3 seconds on/3 Seconds off. Corneal flaps (200 μm thick) were excised from the eyes with aid of Intralase femtosecond laser (Abbott Medical Optics, Santa Ana, Calif.). The average thickness of the corneal flaps was calculated as a difference between the measurements before and after the excision from the eyes with an ultrasonic Pachymeter (DGH Technology, Exton, Pa.).
The flaps were washed with distilled water until Riboflavin in the washing waters was not detectable by absorbance measurement at 455 nm (Thermo Scientific Evolution 300/600 UV-Vis Spectrophotometer, Thermo Fisher Scientific, Waltham, Mass.). […] Papain digests were centrifuged for 30 seconds at 2200×G (Mini centrifuge 05-090-100, Fisher Scientific), diluted 3 times with 1×PBS solution and fluorescence of the solutions was measured with excitation of λex=360 nm in a QM-40 Spectrofluorometer (Photon Technology Int., London, Ontario, Canada).
The fluorescence of the papain buffer was taken into account by measuring fluorescence in the absence of tissue and subtracting this value from the fluorescence of the samples. The results seen below corroborate that the amount of fluorescence seen which is directly related to the amount of cross-linking is greater for the pulsed vs. continuous wave illumination in nearly the same proportion as the biomechanical measurements taken of the same flaps.

In the case of `Cc1cc2c(cc1C)N(C[C@H](O)[C@H](O)[C@H](O)CO)c1[nH]c(=O)[nH]c(=O)c1N2` [RfH2, Leuco-Deuteroflavin], the “absorbance at 445 nm” value ([1]; after irradiation for 3 minutes at 30 mW/cm^2) is reported as “about 0.340”, the “fluorescence of corneal samples” value ([2]; Riboflavin solution irradiated with a reducing agent, EDTA (1% EDTA, 0.1% Riboflavin)) is reported as “highest” and the “fluorescence of corneal samples versus samples washed with unexposed Riboflavin” value ([2]; preliminary UVA-exposed Riboflavin solutions, no further UV light) is reported as “higher”.
With `Cc1cc2nc3c(=O)[nH]c(=O)nc-3n(C[C@H](O)[C@H](O)[C@H](O)CO)c2cc1C` [Riboflavin] the “corneal fluorescence at first 100 μm versus next 100 μm” value ([3]; 0.1, 0.25 or 0.5% Riboflavin, 3 or 30 mW/cm^2, dose 5.4 J/cm^2) was “greater at first 100 μm than at the next 100 μm”, the “corneal fluorescence relative to non-cross-linked samples” value ([3]; first 100 μm, 0.1% Riboflavin solution, 3 mW/cm^2, dose 5.4 J/cm^2) was “highest corneal fluorescence” and the “biomechanical stiffness (FIG. 5C)” value ([4]; 0.1% Riboflavin, 30 mW/cm^2 pulsed 3 seconds on/4.5 seconds off and 3 seconds on/3 seconds off) was “slightly lower biomechanical stiffness”. The “biomechanical stiffness (FIG. 5C)” value ([4]; 0.25% Riboflavin, 3 mW/cm^2 continuous wave) was “lowest biomechanical stiffness out of samples 1 and 3-7”, the “biomechanical stiffness (FIG. 7B)” value ([4]; 3 mW/cm^2 and 30 mW/cm^2 continuous wave illumination, versus pulsed with oxygen) was “lower biomechanical stiffness” and the “biomechanical stiffness (FIG. 5C)” value ([4]; 30 mW/cm^2 pulsed, 3 seconds on, 1.5, 0.75 and 0.25 seconds off (samples 5, 6, 7)) was “in descending order”. The “biomechanical stiffness (FIG. 5C)” value ([4]; sample 1: 0.1% Riboflavin, 3 mW/cm^2 continuous wave) was “highest biomechanical stiffness”, the “biomechanical stiffness (FIG. 5B)” value ([4]; sample 2: 0.1% Riboflavin, 30 mW/cm^2 pulsed, 4.5 second exposure cycles, 3 seconds off) was “slightly lower biomechanical stiffness than samples 3 or 1” and the “biomechanical stiffness (FIG. 5A)” value ([4]; sample 2: 0.25% Riboflavin, 3 mW/cm^2 continuous wave vs. sample 3 at 30 mW/cm^2, 5.4 J/cm^2) was “dissimilar biomechanical stiffness”. The “biomechanical stiffness (FIG. 7B)” value ([4]; sample 3: 30 mW/cm^2 pulsed light with oxygen, 3 seconds on/3 seconds off) was “highest biomechanical stiffness”, the “biomechanical stiffness (FIG. 5A)” value ([4]; sample 5: 30 mW/cm^2 continuous wave, total 35.1 J/cm^2 dose) was “higher than that for samples 6, 7, 3, 4, and 1; also recorded: lower than that for sample 2” and the “biomechanical stiffness (FIG. 5A)” value ([4]; sample 8: 0.1% Riboflavin, 30 mW/cm^2 pulsed 3 seconds on/3 seconds off) was “higher than both the samples 6 and 7”. For the same compound, the “amount of cross-linking by fluorescence of digested flaps at 450 nm (FIG. 7A)” value [5] was “greatly increases the amount of cross-linking”, the “absorbance at 445 nm” value ([1]; initial sample) was “about 0.543” and the “fluorescence at 455 nm” value ([6]; 30 mW/cm^2 continuous illumination) was “about 12000 counts/s”. The “fluorescence at 455 nm” value ([6]; 30 mW/cm^2 pulsed light 3 seconds on/3 seconds off) was “about 20,000 counts/s” and the “fluorescence at 455 nm, continuous less than pulsed” value ([6]; 30 mW/cm^2 continuous versus pulsed 3 seconds on/3 seconds off) was “about 40%”.
